Source: ChEMBL document CHEMBL5055661, “Cell-Based Drug Discovery: Identification and Optimization of Small Molecules that Reduce c-MYC Protein Levels in Cells” (J Med Chem, 2021)
Active and inactive are the calls of the source. No cut-off for these calls is given here.

Columns and labels:
[1] = Clearance in CD1 mouse at 0.5 mg/kg, iv by LC-MS/MS analysis; type: ADME, organism-based; conditions: in vivo
[2] = Half life in CD1 mouse at 0.5 mg/kg, iv by LC-MS/MS analysis; type: ADME, organism-based; conditions: in vivo
[3] = Oral bioavailability in CD1 mouse at 5.1 mg/kg by LC-MS/MS analysis; type: ADME, organism-based; conditions: in vivo
DOHH-2 [4] = test: Decrease in c-MYC protein level in human DOHH-2 cells incubated for 6 hrs by Western blot analysis; type: functional, cell-based
[5] = AUC (0 to inf) in Han Wistar rat at 2.1 mg/kg, po by LC-MS/MS analysis; type: ADME, organism-based; parameters: time infinity, dose 2.1 mg/kg, route po; conditions: in vivo
[6] = Plasma protein binding in Han Wistar rat at 2.1 mg/kg, po by LC-MS/MS analysis; type: ADME, organism-based; conditions: read-out: PPB
[7] = AUC (0 to inf) in CD1 mouse at 5.1 mg/kg, po by LC-MS/MS analysis; type: ADME, organism-based; parameters: time infinity, dose 5.1 mg/kg, route po; conditions: in vivo
DOHH-2 [8] = test: Anticancer activity against human DOHH-2 cells assessed as reduction in MYC mRNA expression in tumor at 30 mg/kg, po qd measured after 28 days by qRT-PCR analysis; type: functional, organism-based; conditions: time 28.0 day
Mus musculus = test: Toxicity in mouse assessed as decrease in body weight at 30 mg/kg, po qd measured after 28 days; type: organism-based; conditions: in vivo, 672 h, time 28 day
[9] = Clearance in CD1 mouse at 0.49 mg/kg, iv by LC-MS/MS analysis; type: ADME, organism-based; conditions: in vivo
[10] = Oral bioavailability in Han Wistar rat at 2.1 mg/kg by LC-MS/MS analysis; type: ADME, organism-based; conditions: in vivo
[11] = Reduction in cMyc expression in human COLO 320HSR cells incubated for 24 hrs by HTRF assay; type: functional, cell-based
DOHH-2 [12] = test: Reduction in MYC mRNA level in po dosed mouse xenografted with human DOHH-2 cells by qRT-PCR analysis; type: functional, organism-based; conditions: dose 15-100 mg/kg
[13] = Volume of distribution at steady state in Han Wistar rat at 1 mg/kg, iv by LC-MS/MS analysis; type: ADME, organism-based; conditions: in vivo, read-out: Vdss
DOHH-2 [14] = test: Anticancer activity against human DOHH-2 cells assessed as tumor growth inhibition at 45 mg/kg, po qd measured after 21 days; type: functional; conditions: DOHH-2, 504 h, time 21 day, read-out: TGI
[15] = Clearance in Han Wistar rat at 1 mg/kg, iv by LC-MS/MS analysis; type: ADME, organism-based; conditions: in vivo
[16] = Half life in Han Wistar rat at 1 mg/kg, iv by LC-MS/MS analysis; type: ADME, organism-based; conditions: in vivo
[17] = Half life in CD1 mouse at 0.49 mg/kg, iv by LC-MS/MS analysis; type: ADME, organism-based; conditions: in vivo
[18] = Volume of distribution at steady state in CD1 mouse at 0.5 mg/kg, iv by LC-MS/MS analysis; type: ADME, organism-based; conditions: in vivo, read-out: Vdss
DOHH-2 [19] = test: Anticancer activity against human DOHH-2 cells assessed as tumor growth inhibition at 30 mg/kg, po qd measured after 28 days; type: functional; conditions: DOHH-2, 672 h, time 28 day, read-out: TGI
DOHH-2 [20] = test: Anticancer activity against human DOHH-2 cells assessed as tumor growth inhibition at 30 mg/kg, po qd measured after 21 days; type: functional; conditions: DOHH-2, 504 h, time 21 day, read-out: TGI
Burkitts lymphoma cell = test: Growth inhibition of MYC-translocated human Burkitts lymphoma cells measured after 6 days by CellTiterGlo-assay; type: functional; conditions: time 6.0 day
[21] = Plasma protein binding in CD1 mouse at 5.1 mg/kg, po by LC-MS/MS analysis; type: ADME, organism-based; conditions: read-out: PPB
[22] = Volume of distribution at steady state in CD1 mouse at 0.49 mg/kg, iv by LC-MS/MS analysis; type: ADME, organism-based; conditions: in vivo, read-out: Vdss
[23] = Permeability of the compound across artificial membrane by AMP assay; type: ADME; conditions: PAMPA; read-out: permeability

CCNC(=O)c1cc(OC)c2c(c1)nc(-c1ccc(N3[C@@H](C)CC[C@@H]3C)nc1)n2C[C@@H]1CN(C)CCO1 showed a clearance [1] of 26 mL/min/kg, a half-life [2] of 1.9 h and a bioavailability [3] of 35%. The Activity (DOHH-2 [4]) was “Active”, the AUC(0-inf) [5] was 669 ng·h/mL and the fraction unbound [6] was 0.09. The AUC(0-inf) [7] was 1720 ng·h/mL, the Activity (DOHH-2 [8]) was “Active” and the Activity (Mus musculus) was “Non-Toxic”. For the same compound, the clearance [9] was 25 mL/min/kg, the bioavailability [10] was 40% and the EC50 [11] was 79.4 nM. For the same compound, the Activity (DOHH-2 [12]) was “Active”, the Vd [13] was 2.6 L/kg and the inhibition in vivo at 45 mg/kg (DOHH-2 [14]) was 89%. The clearance [15] was 22 mL/min/kg, the half-life [16] was 3.6 h and the half-life [17] was 0.75 h. The Vd [18] was 3.4 L/kg, the inhibition in vivo at 30 mg/kg (DOHH-2 [19]) was 82% and the inhibition in vivo at 30 mg/kg (DOHH-2 [20]) was 58%. The “growth inhibition (GI)” value (Burkitts lymphoma cell) was “Active”, the fraction unbound [21] was 0.01 and the Vd [22] was 0.73 L/kg. It also gave a Papp [23] of 20.5 ×10⁻⁶ cm/s.
